Data: US20070134261A1, “Effectors of innate immunity” (priority 2001, published 2007)
Residues, ends and D or L forms follow the SMILES beside them.

Test system: A549 epithelial cells
Experiment: Human Operon arrays (PRHU04-S1) of A549 cells treated with peptide alone (Tables 31-37, 53)
Conditions: peptide 50 μg/ml, 4 h, A549 cells

CSCC[C@H](NC(=O)[C@H](CO)NC(=O)[C@@H](NC(=O)[C@H](CCCCN)NC(=O)[C@H](Cc1ccccc1)NC(=O)[C@H](CS)NC(=O)[C@H](CO)NC(=O)[C@H](CCCNC(=N)N)NC(=O)[C@@H](N)CCCCN)C(C)C)C(=O)N[C@@H](CCCNC(=N)N)C(=O)NCC(=O)N[C@H](C(=O)N[C@@H](CO)C(=O)N[C@@H](CCCNC(=N)N)C(=O)N[C@@H](CCCNC(=N)N)C(=O)N[C@@H](CCCNC(=N)N)C(=O)N[C@@H](CS)C(=O)N[C@@H](CCCCN)C(=O)O)C(C)C [SEQ ID NO: 27] (H-KRSCFKVSMRGVSRRRCK-OH; N-terminus and C-terminus assumed)
ID#:ctrl expression ratio, AB002359 phosphoribosyl formylglycina midine synthase: 2.7 | ID#:ctrl expression ratio, AB006537 IL-1R accessory protein: 7.0 | ID#:ctrl expression ratio, AB011124 KIAA0552 gene product: 72.0 | ID#:ctrl expression ratio, AB014536 copine III: 9.5 | ID#:ctrl expression ratio, AB018285 KIAA0742 protein: 13.9 | ID#:ctrl expression ratio, AB020659 KIAA0852 protein: 7.6 | ID#:ctrl expression ratio, AC004774 distal-less homeo box 5: 6.3 | ID#:ctrl expression ratio, AC005154 unkown: 7.2 | ID#:ctrl expression ratio, AF000237 1-acylglycerol-3-phosphate O-acyltransferase 2: 2.5 | ID#:ctrl expression ratio, AF012086 RAN binding protein 2-like 1: 4.0 | ID#:ctrl expression ratio, AF030555 fatty-acid-Coenzyme A ligase_long-chain 4: 2.2 | ID#:ctrl expression ratio, AF035309 proteasome 26S subunit ATPase 5: 6.6 | ID#:ctrl expression ratio, AF038664 UDP-Gal:beta GlcNAc beta 1_4-galactosyltransferase: 22.2 | ID#:ctrl expression ratio, AF042378 spindle pole body protein: 3.0 | ID#:ctrl expression ratio, AF052138 unknown: 2.8 | ID#:ctrl expression ratio, AF052183 unknown: 3.7 | ID#:ctrl expression ratio, AF071510 lecithin retinol acyltransferase: 10.3 | ID#:ctrl expression ratio, AF074723 RNA polymerase II transcriptional regulation mediator: 3.2 | ID#:ctrl expression ratio, AF080579 Homo sapiens integral membrane protein: 3.0 | ID#:ctrl expression ratio, AF088868 fibrousheathin II: 10.0 | ID#:ctrl expression ratio, AF093265 Homer neuronal immediate early gene_3: 13.3 | ID#:ctrl expression ratio, AF124735 LIM HOX gene 2: 4.4 | ID#:ctrl expression ratio, AF131831 unknown: 7.0 | ID#:ctrl expression ratio, AF151043 hypothetical protein: 2.2 | ID#:ctrl expression ratio, AF251040 putative nuclear protein: 3.4 | ID#:ctrl expression ratio, AJ005273 antigenic determinant of recA protein: 11.1 | ID#:ctrl expression ratio, AK000161 hypothetical protein: 8.7 | ID#:ctrl expression ratio, AK000227 hypothetical protein: 7.1 | ID#:ctrl expression ratio, AK000541 hypothetical protein: 13.9 | ID#:ctrl expression ratio, AK000576 hypothetical protein: 9.3 | ID#:ctrl expression ratio, AK001075 hypothetical protein: 2.6 | ID#:ctrl expression ratio, AK001135 Sec23-interacting protein p125: 4.5 | ID#:ctrl expression ratio, AK001154 hypothetical protein: 4.4 | ID#:ctrl expression ratio, AK001890 unknown: 3.5 | ID#:ctrl expression ratio, AL024493 unknown: 13.5 | ID#:ctrl expression ratio, AL031121 unknown: 3.7 | ID#:ctrl expression ratio, AL031588 hypothetical protein: 20.2 | ID#:ctrl expression ratio, AL035562 paired box gene 1: 81.9 | ID#:ctrl expression ratio, AL080077 unknown: 2.0 | ID#:ctrl expression ratio, AL096803 unknown: 18.3 | ID#:ctrl expression ratio, AL110125 unknown: 2.7 | ID#:ctrl expression ratio, AL133051 unknown: 6.3 | ID#:ctrl expression ratio, AL133605 unknown: 4.2 | ID#:ctrl expression ratio, AL137268 KIAA0759 protein: 2.3 | ID#:ctrl expression ratio, AL137461 unknown: 9.0 | ID#:ctrl expression ratio, AL137540 unknown: 2.6 | ID#:ctrl expression ratio, AL137577 unknown: 6.2 | ID#:ctrl expression ratio, AL137718 unknown: 8.0 | ID#:ctrl expression ratio, D00760 proteasome subunit_alpha type_2: 2.6 | ID#:ctrl expression ratio, D12676 CD36 antigen: 3.4 | ID#:ctrl expression ratio, D31891 SET domain_bifurcated_1: 6.0 | ID#:ctrl expression ratio, D42053 site-1 protease: 7.1 | ID#:ctrl expression ratio, D50405 histone deacetylase 1: 7.2 | ID#:ctrl expression ratio, D80000 Segregation of mitotic chromosomes 1: 2.5 | ID#:ctrl expression ratio, D87120 osteoblast protein: 2.0 | ID#:ctrl expression ratio, J03068 N-acylaminoacyl-peptide hydrolase: 5.0 | ID#:ctrl expression ratio, L34587 transcription elongation factor B: 16.3 | ID#:ctrl expression ratio, M34175 adaptor-related protein complex 2 beta 1 subunit: 3.1 | ID#:ctrl expression ratio, M81933 cell division cycle 25A: 3.1 | ID#:ctrl expression ratio, M97925 defensin alpha 5_Paneth cell-specific: 35.9 | ID#:ctrl expression ratio, NM_004732 potassium voltage-gated channel: 4.0 | ID#:ctrl expression ratio, NM_004862 LPS-induced TNF-alpha factor: 4.8 | ID#:ctrl expression ratio, NM_006963 zinc finger protein 22: 7.6 | ID#:ctrl expression ratio, NM_013329 GC-rich sequence DNA-binding factor candidate: 14.3 | ID#:ctrl expression ratio, NM_013393 cell division protein FtsJ: 5.8 | ID#:ctrl expression ratio, NM_014366 putative nucleotide binding protein_estradiol-induced: 4.3 | ID#:ctrl expression ratio, NM_016015 CGI-68 protein: 2.3 | ID#:ctrl expression ratio, S49953 DNA-binding transcriptional activator: 4.0 | ID#:ctrl expression ratio, S57296 HER2/neu receptor: 12.1 | ID#:ctrl expression ratio, U00115 zinc finger protein 51: 2.2 | ID#:ctrl expression ratio, U13666 G protein-coupled receptor 1: 5.4 | ID#:ctrl expression ratio, U33547 MHC class II antigen HLA-DRB6 mRNA: 5.3 | ID#:ctrl expression ratio, U67156 mitogen-activated protein kinase kinase kinase 5: 3.0 | ID#:ctrl expression ratio, U68018 MAD homolog 2: 2.2 | ID#:ctrl expression ratio, U71092 G protein-coupled receptor 24: 9.1 | ID#:ctrl expression ratio, U78305 protein phosphatase 1D: 13.0 | ID#:ctrl expression ratio, U88528 cAMP responsive element binding protein: 5.4 | ID#:ctrl expression ratio, U88666 SFRS protein kinase 2: 5.9 | ID#:ctrl expression ratio, X59770 IL-1R type II: 4.7 | ID#:ctrl expression ratio, X62744 MHC class II DM alpha: 4.7 | ID#:ctrl expression ratio, X63563 polymerase II polypeptide B: 8.1 | ID#:ctrl expression ratio, X89399 RAS p21 protein activator: 14.9
